Here are results for two compounds from patent publication US11932595B2, “VDR-silent vitamin D derivative as inhibitors of SREBP and pharmaceutical use thereof” (KYOTO UNIVERSITY, priority 2020, dated 2024).

The structures appear in SMILES notation.

Data set [1] can be described thus: Short-term in vivo model: serum calcium levels. On the set-up: species or system mice. As to conditions: 10 mg/kg intraperitoneally, after 4 days, n=3, FIG. 5D. How it is done:
(§1) To quickly and simultaneously examine their SREBP inhibitory activity and VDR-derived calcemic activity in vivo, a short-term in vivo screening system of mice was established. With reference to the previous report (Horton, J. D. et al. Proc. Natl. Acad. Sci. U.S.A. 1998, 95, 5987-5992.), mice were fasted for 48 hours then refed a special diet (low fat, high carbohydrate diet, lacking in vitamin D) for 48 hours before sacrifice.
C57BL/6 and oh/oh mice were purchased from CLEA Japan and Charles River Japan, Inc., respectively. Animal experiments were carried out at the University of Tokyo and Charles River Laboratories. Low fat, high carbohydrate diet, lacking vitamin D was custom made by Research Diets, Inc. Compounds disclosed herein and 25(OH)D3 were dissolved in ethanol/Tween 20 (9:1) to obtain stock solution and then diluted 10-fold with PBS immediately before administration to mice.
10 mg/kg compounds or vehicle control were administered intraperitoneally once every 24 hours during the fasting and refeeding.
Following sacrifice, mouse livers were fixed in 10% neutral-buffered formalin, embedded in paraffin, sectioned, and stained with H&E. Hepatic lipids were extracted with chloroform/methanol (2:1 v/v), and TG and cholesterol contents were measured with Triglyceride Reagent Set (Pointe Scientific) and Cholesterol E (Wako), respectively. Serum levels of ALT, TG, glucose, cholesterol, and calcium were measured in SRL Inc. (Tokyo). All experiments were approved by the Ethics Committee for Animal Experimentation of the University of Tokyo and Charles River Laboratories Japan, and were conducted in accordance with the Guidelines for the Care and Use of Laboratory Animals.
Serum calcium levels in the mice treated with vehicle, compounds, or 25(OH)D3 were determined (means±SEM, n=3 per group), *p<0.05 (FIG. 5D).

For another data set, the system named is SREBP. The data set can be described thus: SREBP luciferase reporter assay (pSRE-Luc) in CHO-K1 cells. To be noted: CHO-K1 cells. In kind it is cell-based. The method, then:
Cell Culture: CHO-K1 cells were maintained in medium A (1:1 mixture of Ham's F-12 medium and DMEM, supplemented with 100 units/mL penicillin, 100 μg/mL streptomycin sulfate, and 5% [v/v] fetal bovine serum) at 37° C. in a humidified 5% CO2 incubator.
CHO-K1 cells were seeded into 96-well plates at 8×10^3 cells per well in medium A and incubated for 24 h. For SREBP reporter assay, cells were co-transfected with an SRE-1-driven luciferase reporter plasmid (pSRE-Luc) and an actin promoter-driven β-galactosidase expression plasmid (pAc-13-gal) at a 20:1 ratio, using FuGENE HD Transfection Reagent (Promega) according to the manufacturer's protocol.
After 20 h, the medium was changed to medium B (1:1 mixture of Ham's F-12 medium and DMEM, supplemented with 100 units/mL penicillin, 100 μg/mL streptomycin sulfate, 5% [v/v] lipid-depleted serum, 50 μM compactin (Tokyo Chemical Industry), and 50 μM lithium mevalonate (Sigma-Aldrich) containing the specific test compounds. After 24 h incubation, the cells in each well were lysed with 100 μL of 1× Reporter Lysis Buffer (Promega), and 50 μL of aliquots were used to measure luciferase and 13-gal activities. Luciferase activity was measured using the Steady-Glo Luciferase Assay System (Promega), and 13-gal activity was measured using the 13-Galactosidase Enzyme Assay System (Promega). Luciferase activity was normalized to 13-gal activity.
[…] The same experiment using of 25(OH)D3 (1) was performed as control. Values are mean±SD.

The subject of another data set is SREBP-responsive genes. As to conditions: low μM dose, cultured cells; cited from earlier work.
The target in another data set is T1, SCAP protein (Mus musculus, UniProt Q6GQT6).
T1 construct: from tissue; host or cells: mouse liver
T1 sequence (Q6GQT6 1-1276): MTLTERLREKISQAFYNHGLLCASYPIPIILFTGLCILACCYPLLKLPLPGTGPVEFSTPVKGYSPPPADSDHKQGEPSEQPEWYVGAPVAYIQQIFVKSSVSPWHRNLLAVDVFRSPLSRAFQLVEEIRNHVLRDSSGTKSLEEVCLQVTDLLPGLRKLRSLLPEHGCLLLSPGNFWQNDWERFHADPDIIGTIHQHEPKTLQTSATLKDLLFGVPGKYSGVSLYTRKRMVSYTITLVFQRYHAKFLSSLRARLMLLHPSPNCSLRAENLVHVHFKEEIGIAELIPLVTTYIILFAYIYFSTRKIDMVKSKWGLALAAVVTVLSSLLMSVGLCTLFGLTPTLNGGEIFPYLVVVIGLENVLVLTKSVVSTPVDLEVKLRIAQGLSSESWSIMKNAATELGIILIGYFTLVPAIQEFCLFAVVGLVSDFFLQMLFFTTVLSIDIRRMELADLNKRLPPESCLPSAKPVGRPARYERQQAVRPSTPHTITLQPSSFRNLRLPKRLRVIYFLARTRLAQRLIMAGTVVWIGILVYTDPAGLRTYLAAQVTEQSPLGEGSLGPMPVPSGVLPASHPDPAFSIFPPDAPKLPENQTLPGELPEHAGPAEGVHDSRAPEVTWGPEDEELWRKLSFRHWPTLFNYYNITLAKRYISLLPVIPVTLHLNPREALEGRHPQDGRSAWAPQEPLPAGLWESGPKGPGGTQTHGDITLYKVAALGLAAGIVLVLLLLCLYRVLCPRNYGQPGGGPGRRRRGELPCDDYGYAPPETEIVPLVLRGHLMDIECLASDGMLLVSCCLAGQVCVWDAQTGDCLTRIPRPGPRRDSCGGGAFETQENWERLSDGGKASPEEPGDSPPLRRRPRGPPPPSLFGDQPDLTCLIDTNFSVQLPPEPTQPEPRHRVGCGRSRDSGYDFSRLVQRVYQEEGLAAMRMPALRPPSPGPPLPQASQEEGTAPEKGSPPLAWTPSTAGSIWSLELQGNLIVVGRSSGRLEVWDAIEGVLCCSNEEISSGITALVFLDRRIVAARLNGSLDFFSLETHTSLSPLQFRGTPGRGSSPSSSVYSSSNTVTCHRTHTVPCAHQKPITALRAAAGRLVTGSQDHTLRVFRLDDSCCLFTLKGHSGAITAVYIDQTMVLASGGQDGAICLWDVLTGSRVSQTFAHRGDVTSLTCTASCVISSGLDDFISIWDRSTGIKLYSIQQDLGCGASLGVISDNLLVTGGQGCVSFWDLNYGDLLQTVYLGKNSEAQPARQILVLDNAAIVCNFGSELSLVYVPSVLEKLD
Description: Short-term in vivo model: Western blot of SCAP protein in the liver. On the set-up: species or system mice. To be noted: FIG. 5F. The method, then:
as §1, with “sacrifice. 10 mg/kg compounds or vehicle control were administered intraperitoneally once every 24 hours during the fasting and refeeding. Western blot analysis of SCAP protein in the livers obtained from the indicated mice were obtained, (FIG. 5F).” for “sacrifice.”

`C=C1CC[C@H](O)C/C1=C/C=C1\CCC[C@]2(C)[C@@H]([C@H](C)CCCC(C)(C)O)CC[C@@H]12` [25(OH)D3, 25-hydroxyvitamin D3, reference compound]: the serum calcium levels entry in data set [1] is “markedly increased”. Further, the “SREBP inhibitory activity (expression of SREBP-responsive luciferase reporter gene)” value with SREBP (5 μM compound, lipid-free medium, 24 h, FIGS. 1 and 3) is recorded as “substantial inhibitory activity”. In addition, the cellular lipogenesis entry in the data set with SREBP-responsive genes is given as “inhibits cellular lipogenesis”.

On to `C[C@H](CCC(F)(F)C(C)(C)O)[C@H]1CC[C@H]2/C(=C/Cn3nnnc3-c3ccccc3)CCC[C@]12C` [Compound 50, (R)-3,3-Difluoro-2-methyl-6-{(1R,3aS,7aR,E)-7a-methyl-4-[2-(5-phenyl-1H-tetrazol-1-yl)ethylidene]octahydro-1H-inden-1-yl}heptan-2-ol], for which the serum calcium levels result in data set [1] is “no detectable increase”. The “inhibition of activation of the SREBP reporter gene, concentration dependence” value with SREBP (FIG. 6A) is “concentration-dependent manner comparable to 25(OH)D3”. For the same compound, at SCAP protein, the “increased hepatic expression of SCAP protein after fasting and refeeding” value is given as “canceled”.
